Consider two compounds from paper PMC10054226, “Rapid and Efficient Access to Novel Bio-Inspired 3-Dimensional Tricyclic SpiroLactams as Privileged Structures via Meyers’ Lactamization” (Pharmaceuticals, 2023).

Series [1] has as its system metastatic breast cancer cell lines (MDA-MB-231). Also on record: method as in PMID 21158420. Conditions: cited from earlier work.
The nature of series [2]: Aqueous solubility in PBS at pH 7.4 (LC-MS/MS, AUC PBS/AUC MeOH x 200). Conditions: aqueous buffer, kinetic from dmso stock; PBS at pH 7.4, 24 h shaking at room temperature, triplicate. The class given is physicochemical. As for the experimental part:
To determine compound solubility, 10 mM of the compound 44 in DMSO was diluted 50-fold either in PBS at pH 7.4 or in organic MeOH solvent in PP tubes (n = 3 for PBS and […]). The tubes were gently shaken for 24 h at room temperature. Then, the three PBS tubes and three of the six methanol tubes were centrifuged for 5 min at 4000 rpm and filtered over 0.45 μm filters (Millex-LH Millipore). The sample was diluted 50-fold in MeOH before LC-MS/MS analysis. The test was performed in triplicate. The solubility was determined by the following ratio: (AUCPBS/AUCMeOH) × 200.

Series [3] in a line: LogD, octanol:PBS 1:1 at pH 7.4 (LC-MS/MS). Type of series: physicochemical. The note with it: octanol:PBS 1:1 at pH 7.4, 2 h at room temperature, triplicate. As for the experimental part: To determine compound LogD, 10 mM of the compound 44 in DMSO was diluted 50-fold in a mixture of 1:1 octanol:PBS at pH 7.4. The mixture was gently shaken for 2 h at room temperature. Each sample was then diluted 50-fold in MeOH before LC-MS/MS analysis. For each compound, the test was performed in triplicate. LogD was determined as the logarithm of the ratio of product concentrations in octanol and PBS, respectively, determined by mass signals.

By solubility is commonly meant the concentration that dissolves in the medium under given conditions. Higher therefore signals much dissolved substance. Broadly, the logD is lipophilicity at a set pH, counting ionised and neutral species. Low readings indicate lower lipophilicity, high ones higher lipophilicity.

With `C=C1CCC2C(C)(C)CCCC23C(=O)OCC13` (stereo not drawn) [Antrocin], the “activity against the proliferation of metastatic breast cancer cell lines” value in series [1] is reported as “significant activity”.

In series [2], `CC(C)[C@H]1CO[C@]23CCNC[C@H]2CCC(=O)N13` [Compound 44, (3S,7aR,11aR)-3-isopropyl-3,6,7,7a,8,9,10,11-octahydro-2H-oxazolo[2,3-j][1,6]naphthyridin-5-one;formic acid] registered a solubility at 24 h greater than 200 µM. This compound also gave a logD at 2 h in series [3] of -1.72.
